{"source": "patent US20230160007A1", "about": "“KIT FOR EVALUATING SENSITIVITY OF PATIENT TO MET INHIBITOR” (Beijing Neurosurgical Institute, priority 2020, published 2023)", "format_in_all_cases": "cell-based, human", "key": {"[1]": {"system": "glioblastoma PDC sample D", "assay": "CCK-8 viable count of glioblastoma PDC sample D after drug treatment", "conditions": "for Living cell proportion (a value relative to CCK8): 72 h", "procedure": "(§1) Enzymolysis was separately carried out on the four collected glioblastoma samples to obtain glioblastoma PDC samples A, B, C and D.\n(§2) The glioblastoma PDC samples A, B, C and D were taken, re-suspended by using a special culture medium, and then respectively inoculated into a 96-well cell culture plate, so that each culture well contained 3000 cells. After inoculation was completed, the 96-well cell culture plate was placed in an incubator containing 5% CO2 at 37° C., and incubation was performed for 24 h. […] After the drug was added, the incubation was continued to be performed for 72 h, then the viable count in each culture well was measured by using CCK-8, and the results are shown in Table 1, Table 2, FIG. 11 and FIG. 12."}, "[2]": {"system": "glioblastoma PDC sample C", "assay": "CCK-8 viable count of glioblastoma PDC sample C after drug treatment", "conditions": "for Living cell proportion (a value relative to CCK8): 72 h", "procedure": "as §1\n(§3) The glioblastoma PDC samples A, B, C and D were taken, re-suspended by using a special culture medium, and then respectively inoculated into a 96-well cell culture plate, so that each culture well contained 3000 cells. After inoculation was completed, the 96-well cell culture plate was placed in an incubator containing 5% CO2 at 37° C., and incubation was performed for 24 h."}, "[3]": {"system": "glioblastoma PDC sample B", "assay": "CCK-8 viable count of glioblastoma PDC sample B after drug treatment", "conditions": "for Living cell proportion (a value relative to CCK8): PDC sample B, 72 h", "procedure": "as §1, §3"}, "[4]": {"system": "glioblastoma PDC sample A", "assay": "CCK-8 viable count of glioblastoma PDC sample A after drug treatment", "conditions": "for Living cell proportion (a value relative to CCK8): PDC sample A, 72 h", "procedure": "as §1, §2"}}, "data": [{"smiles": "Cn1nnc2c(C(N)=O)ncn2c1=O", "note": "[TMZ, temozolomide]", "values": [{"measurement": "Living cell proportion (a value relative to CCK8)", "setting": "[1]; TMZ 50 μM", "result": 0.7828}, {"measurement": "Living cell proportion (a value relative to CCK8)", "setting": "[1]; TMZ 100 μM", "result": 0.647}, {"measurement": "Living cell proportion (a value relative to CCK8)", "setting": "[1]; TMZ 150 μM", "result": 0.5799}, {"measurement": "Living cell proportion (a value relative to CCK8)", "setting": "[1]; TMZ 200 μM", "result": 0.5468}, {"measurement": "Living cell proportion (a value relative to CCK8)", "setting": "[1]; TMZ 300 μM", "result": 0.4681}, {"measurement": "Living cell proportion (a value relative to CCK8)", "setting": "[1]; TMZ 400 μM", "result": 0.3984}, {"measurement": "Living cell proportion (a value relative to CCK8)", "setting": "[1]; TMZ 600 μM", "result": 0.3435}, {"measurement": "Living cell proportion (a value relative to CCK8)", "setting": "[1]; TMZ 800 μM", "result": 0.2684}, {"measurement": "Living cell proportion (a value relative to CCK8)", "setting": "[1]; TMZ 1000 μM", "result": 0.2529}, {"measurement": "Living cell proportion (a value relative to CCK8)", "setting": "[2]; TMZ 50 μM", "result": 0.6188}, {"measurement": "Living cell proportion (a value relative to CCK8)", "setting": "[2]; TMZ 100 μM", "result": 0.5841}, {"measurement": "Living cell proportion (a value relative to CCK8)", "setting": "[2]; TMZ 150 μM", "result": 0.4536}, {"measurement": "Living cell proportion (a value relative to CCK8)", "setting": "[2]; TMZ 200 μM", "result": 0.4768}, {"measurement": "Living cell proportion (a value relative to CCK8)", "setting": "[2]; TMZ 300 μM", "result": 0.4315}, {"measurement": "Living cell proportion (a value relative to CCK8)", "setting": "[2]; TMZ 400 μM", "result": 0.3164}, {"measurement": "Living cell proportion (a value relative to CCK8)", "setting": "[2]; TMZ 600 μM", "result": 0.2817}, {"measurement": "Living cell proportion (a value relative to CCK8)", "setting": "[2]; TMZ 800 μM", "result": 0.2834}, {"measurement": "Living cell proportion (a value relative to CCK8)", "setting": "[2]; TMZ 1000 μM", "result": 0.3585}, {"measurement": "Living cell proportion (a value relative to CCK8)", "setting": "[3]; TMZ 50 μM", "result": 0.8549}, {"measurement": "Living cell proportion (a value relative to CCK8)", "setting": "[3]; TMZ 100 μM", "result": 0.8905}, {"measurement": "Living cell proportion (a value relative to CCK8)", "setting": "[3]; TMZ 150 μM", "result": 0.9369}, {"measurement": "Living cell proportion (a value relative to CCK8)", "setting": "[3]; TMZ 200 μM", "result": 0.8763}, {"measurement": "Living cell proportion (a value relative to CCK8)", "setting": "[3]; TMZ 300 μM", "result": 0.724}, {"measurement": "Living cell proportion (a value relative to CCK8)", "setting": "[3]; TMZ 400 μM", "result": 0.7183}, {"measurement": "Living cell proportion (a value relative to CCK8)", "setting": "[3]; TMZ 600 μM", "result": 0.5489}, {"measurement": "Living cell proportion (a value relative to CCK8)", "setting": "[3]; TMZ 800 μM", "result": 0.345}, {"measurement": "Living cell proportion (a value relative to CCK8)", "setting": "[3]; TMZ 1000 μM", "result": 0.3175}, {"measurement": "Living cell proportion (a value relative to CCK8)", "setting": "[4]; TMZ 50 μM", "result": 0.8481}, {"measurement": "Living cell proportion (a value relative to CCK8)", "setting": "[4]; TMZ 100 μM", "result": 0.8696}, {"measurement": "Living cell proportion (a value relative to CCK8)", "setting": "[4]; TMZ 150 μM", "result": 0.7968}, {"measurement": "Living cell proportion (a value relative to CCK8)", "setting": "[4]; TMZ 200 μM", "result": 0.7843}, {"measurement": "Living cell proportion (a value relative to CCK8)", "setting": "[4]; TMZ 300 μM", "result": 0.7824}, {"measurement": "Living cell proportion (a value relative to CCK8)", "setting": "[4]; TMZ 400 μM", "result": 0.6482}, {"measurement": "Living cell proportion (a value relative to CCK8)", "setting": "[4]; TMZ 600 μM", "result": 0.5261}, {"measurement": "Living cell proportion (a value relative to CCK8)", "setting": "[4]; TMZ 800 μM", "result": 0.4052}, {"measurement": "Living cell proportion (a value relative to CCK8)", "setting": "[4]; TMZ 1000 μM", "result": 0.2577}]}, {"smiles": "C[C@@H](Oc1cc(-c2cnn(C3CCNCC3)c2)cnc1N)c1c(Cl)ccc(F)c1Cl", "note": "[crizotinib]", "values": [{"measurement": "Living cell proportion (a value relative to CCK8)", "setting": "[1]; crizotinib 0.5 μM", "result": 0.9247}, {"measurement": "Living cell proportion (a value relative to CCK8)", "setting": "[1]; crizotinib 1 μM", "result": 0.8162}, {"measurement": "Living cell proportion (a value relative to CCK8)", "setting": "[1]; crizotinib 1.5 μM", "result": 0.7327}, {"measurement": "Living cell proportion (a value relative to CCK8)", "setting": "[1]; crizotinib 2 μM", "result": 0.6986}, {"measurement": "Living cell proportion (a value relative to CCK8)", "setting": "[1]; crizotinib 3 μM", "result": 0.7544}, {"measurement": "Living cell proportion (a value relative to CCK8)", "setting": "[1]; crizotinib 6 μM", "result": 0.5995}, {"measurement": "Living cell proportion (a value relative to CCK8)", "setting": "[1]; crizotinib 9 μM", "result": 0.4381}, {"measurement": "Living cell proportion (a value relative to CCK8)", "setting": "[1]; crizotinib 12 μM", "result": 0.3812}, {"measurement": "Living cell proportion (a value relative to CCK8)", "setting": "[1]; crizotinib 15 μM", "result": 0.4752}, {"measurement": "sensitivity of the glioblastoma PDC sample to the drug", "setting": "[1]; in words", "result": "sensitive"}, {"measurement": "Living cell proportion (a value relative to CCK8)", "setting": "[2]; crizotinib 0.5 μM", "result": 0.9496}, {"measurement": "Living cell proportion (a value relative to CCK8)", "setting": "[2]; crizotinib 1 μM", "result": 0.8619}, {"measurement": "Living cell proportion (a value relative to CCK8)", "setting": "[2]; crizotinib 2 μM", "result": 0.8082}, {"measurement": "Living cell proportion (a value relative to CCK8)", "setting": "[2]; crizotinib 6 μM", "result": 0.6643}, {"measurement": "Living cell proportion (a value relative to CCK8)", "setting": "[2]; crizotinib 9 μM", "result": 0.4383}, {"measurement": "Living cell proportion (a value relative to CCK8)", "setting": "[2]; crizotinib 12 μM", "result": 0.4003}, {"measurement": "Living cell proportion (a value relative to CCK8)", "setting": "[2]; crizotinib 15 μM", "result": 0.3824}, {"measurement": "sensitivity of the glioblastoma PDC sample to the drug", "setting": "[2]; in words", "result": "sensitive"}, {"measurement": "sensitivity of the glioblastoma PDC sample to the drug", "setting": "[3]; PDC sample B (MET exon 10 deleted), in words", "result": "sensitive"}, {"measurement": "Living cell proportion (a value relative to CCK8)", "setting": "[3]; crizotinib 0.5 μM", "result": 0.9128}, {"measurement": "Living cell proportion (a value relative to CCK8)", "setting": "[3]; crizotinib 1 μM", "result": 0.7978}, {"measurement": "Living cell proportion (a value relative to CCK8)", "setting": "[3]; crizotinib 1.5 μM", "result": 0.7125}, {"measurement": "Living cell proportion (a value relative to CCK8)", "setting": "[3]; crizotinib 6 μM", "result": 0.3689}, {"measurement": "Living cell proportion (a value relative to CCK8)", "setting": "[3]; crizotinib 9 μM", "result": 0.3059}, {"measurement": "Living cell proportion (a value relative to CCK8)", "setting": "[3]; crizotinib 12 μM", "result": 0.2806}, {"measurement": "Living cell proportion (a value relative to CCK8)", "setting": "[3]; crizotinib 15 μM", "result": 0.2769}, {"measurement": "sensitivity of the glioblastoma PDC sample to the drug", "setting": "[4]; PDC sample A (MET exon 10 and exon 19 deleted), in words", "result": "sensitive"}, {"measurement": "Living cell proportion (a value relative to CCK8)", "setting": "[4]; crizotinib 0.5 μM", "result": 0.824}, {"measurement": "Living cell proportion (a value relative to CCK8)", "setting": "[4]; crizotinib 1 μM", "result": 0.5684}, {"measurement": "Living cell proportion (a value relative to CCK8)", "setting": "[4]; crizotinib 1.5 μM", "result": 0.4624}, {"measurement": "Living cell proportion (a value relative to CCK8)", "setting": "[4]; crizotinib 2 μM", "result": 0.3834}, {"measurement": "Living cell proportion (a value relative to CCK8)", "setting": "[4]; crizotinib 3 μM", "result": 0.3316}, {"measurement": "Living cell proportion (a value relative to CCK8)", "setting": "[4]; crizotinib 6 μM", "result": 0.2663}, {"measurement": "Living cell proportion (a value relative to CCK8)", "setting": "[4]; crizotinib 9 μM", "result": 0.2482}, {"measurement": "Living cell proportion (a value relative to CCK8)", "setting": "[4]; crizotinib 12 μM", "result": 0.2387}, {"measurement": "Living cell proportion (a value relative to CCK8)", "setting": "[4]; crizotinib 15 μM", "result": 0.2518}]}]}
